Source: patent publication US9878986B2, “Compounds for selective histone deacetylase inhibitors, and pharmaceutical composition comprising the same” (CHONG KUN DANG PHARMACEUTICAL CORP., priority 2013, dated 2018)

Tests used:
[1] = target: T1, HDAC 6 (Homo sapiens, UniProt Q9UBN7); test: Test of HDAC activities, HDAC6 (fluorimetric); type: biochemical; design: purchased Calbiochem 382180; details: samples at 0.1, 1, 10, 100, 1000 nM; 37° C. 60 minutes; fluorescence Ex 390, Em 460; read-out: HDAC inhibitory activities, HDAC6
T1 sequence (Q9UBN7 1-1215): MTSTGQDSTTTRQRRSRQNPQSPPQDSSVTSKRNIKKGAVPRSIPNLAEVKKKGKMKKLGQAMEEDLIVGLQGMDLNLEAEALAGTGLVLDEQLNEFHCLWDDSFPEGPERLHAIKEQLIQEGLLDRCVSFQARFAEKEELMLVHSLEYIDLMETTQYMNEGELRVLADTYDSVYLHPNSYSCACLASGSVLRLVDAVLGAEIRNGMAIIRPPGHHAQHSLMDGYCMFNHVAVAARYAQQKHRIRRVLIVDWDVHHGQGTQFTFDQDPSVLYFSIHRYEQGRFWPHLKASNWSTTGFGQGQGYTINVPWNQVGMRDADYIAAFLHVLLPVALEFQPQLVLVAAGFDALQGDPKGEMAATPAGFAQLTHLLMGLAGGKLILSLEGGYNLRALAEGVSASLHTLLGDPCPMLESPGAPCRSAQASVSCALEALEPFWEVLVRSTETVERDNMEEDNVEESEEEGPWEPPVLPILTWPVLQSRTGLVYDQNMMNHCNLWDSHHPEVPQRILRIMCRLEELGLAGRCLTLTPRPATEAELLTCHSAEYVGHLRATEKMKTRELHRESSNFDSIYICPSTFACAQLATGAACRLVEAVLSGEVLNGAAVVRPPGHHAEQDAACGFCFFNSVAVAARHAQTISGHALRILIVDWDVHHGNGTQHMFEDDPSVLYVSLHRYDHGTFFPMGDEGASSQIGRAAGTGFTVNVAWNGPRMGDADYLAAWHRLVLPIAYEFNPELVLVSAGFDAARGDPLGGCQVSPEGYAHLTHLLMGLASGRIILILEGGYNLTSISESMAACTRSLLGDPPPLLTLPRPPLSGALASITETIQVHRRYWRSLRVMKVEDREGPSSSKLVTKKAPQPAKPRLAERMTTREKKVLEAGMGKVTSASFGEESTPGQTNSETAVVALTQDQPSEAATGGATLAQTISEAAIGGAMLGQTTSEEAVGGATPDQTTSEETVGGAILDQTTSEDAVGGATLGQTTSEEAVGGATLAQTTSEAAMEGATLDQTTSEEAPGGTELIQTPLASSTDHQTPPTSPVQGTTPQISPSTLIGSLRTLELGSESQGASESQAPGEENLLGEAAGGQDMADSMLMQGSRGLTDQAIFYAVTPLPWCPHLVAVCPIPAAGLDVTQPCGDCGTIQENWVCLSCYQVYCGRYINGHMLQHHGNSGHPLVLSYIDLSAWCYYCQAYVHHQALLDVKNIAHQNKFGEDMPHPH
Method: (§1) The HDAC inhibitory activities of test materials were measured using the HDAC1 Fluorimetric Drug Discovery Assay Kit (Enzolifesciences: BML-AK511) and HDAC6 human recombinant (Calbiochem: 382180). In the HDAC1 assay, the samples were treated with concentrations of 100, 1000, and 10000 nM, and in the HDAC6 assay, the samples were treated with concentrations of 0.1, 1, 10, 100, and 1000 nM. After the treatment of the samples, the samples were reacted at 37° C. for 60 minutes, treated with a developer, and then reacted at 37° C. for 30 minutes. Then, the fluorescence intensity (Ex 390, Em 460) was measured using the FlexStation 3 (Molecular device).

[2] = target: HDAC1 (Homo sapiens, UniProt Q13547); test: Test of HDAC activities, HDAC1 Fluorimetric Drug Discovery Assay Kit; type: biochemical; design: purchased Enzolifesciences BML-AK511; details: samples at 100, 1000, 10000 nM; 37° C. 60 minutes; fluorescence Ex 390, Em 460; read-out: HDAC inhibitory activities, HDAC1
Method: as §1

Sequence of HDAC1 (Q13547 whole entry): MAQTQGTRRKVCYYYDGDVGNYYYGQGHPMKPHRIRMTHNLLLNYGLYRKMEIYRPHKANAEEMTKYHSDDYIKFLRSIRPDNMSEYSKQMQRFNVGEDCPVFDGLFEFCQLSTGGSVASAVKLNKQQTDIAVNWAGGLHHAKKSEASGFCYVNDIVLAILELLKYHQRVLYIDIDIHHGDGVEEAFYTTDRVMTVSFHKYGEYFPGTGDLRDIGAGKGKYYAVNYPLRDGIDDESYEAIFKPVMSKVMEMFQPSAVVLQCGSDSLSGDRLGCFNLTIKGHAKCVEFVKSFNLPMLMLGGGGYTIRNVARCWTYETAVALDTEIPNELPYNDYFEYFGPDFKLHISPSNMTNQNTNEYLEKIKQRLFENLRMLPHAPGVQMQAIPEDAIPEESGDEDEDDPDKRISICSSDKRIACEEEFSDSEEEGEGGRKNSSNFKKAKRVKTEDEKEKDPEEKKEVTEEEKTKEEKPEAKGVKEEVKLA

Compound	IC50 [1]	IC50 [2]
Cn1ncc2cc(-c3cccc(N(Cc4ccc(C(=O)NO)cc4)C(=O)N4CCOCC4)c3)ccc21 [Compound 252, N-(4-(hydroxycarbamoyl)benzyl)-N-(3-(1-methyl-1H-indazol-5-yl)phenyl)morpholine-4-carboxamide]	6 nM	151 nM
CN1CCN(C(=O)N(Cc2ccc(C(=O)NO)cc2)c2cccc(Br)c2)CC1 [Compound 256, N-(3-bromophenyl)-N-(4-(hydroxycarbamoyl)benzyl)-4-methylpiperazine-1-carboxamide]	1 nM	148 nM
Cn1ncc2cc(-c3cccc(N(Cc4ccc(C(=O)NO)cc4)C(=O)N4CCCCC4)c3)ccc21 [Compound 260, N-(4-(hydroxycarbamoyl)benzyl)-N-(3-(1-methyl-1H-indazol-5-yl)phenyl)piperidine-1-carboxamide]	7 nM	551 nM
O=C(NO)c1ccc(CN(C(=O)N2CCOCC2)c2cccc(-c3ccc4cc[nH]c4c3)c2)cc1 [Compound 261, N-(3-(1H-indol-6-yl)phenyl)-N-(4-(hydroxycarbamoyl)benzyl)morpholine-4-carboxamide]	2 nM	72 nM
O=C(NO)c1ccc(CN(C(=O)N2CCOCC2)c2cccc(-c3cccnc3)c2)cc1 [Compound 262, N-(4-(hydroxycarbamoyl)benzyl)-N-(3-(pyridin-3-yl)phenyl)morpholine-4-carboxamide]	1 nM	164 nM
O=C(NO)c1ccc(CN(C(=O)N2CCOCC2)c2cccc(-c3ccc4[nH]ccc4c3)c2)cc1 [Compound 263, N-(3-(1H-indol-5-yl)phenyl)-N-(4-(hydroxycarbamoyl)benzyl)morpholine-4-carboxamide]	2 nM	75 nM
O=C(NO)c1ccc(CN(C(=O)N2CCOCC2)c2ccccc2)cc1 [Compound 279, N-(4-(hydroxycarbamoyl)benzyl)-N-phenylmorpholine-4-carboxamide]	1 nM	292 nM
O=C(NO)c1ccc(CN(C(=O)N2CCOCC2)c2ccccn2)cc1 [Compound 280, N-(4-(hydroxycarbamoyl)benzyl)-N-(pyridin-2-yl)morpholine-4-carboxamide]	5 nM	1260 nM
O=C(NO)c1ccc(CN(C(=O)N2CCOCC2)c2cccnc2)cc1 [Compound 281, N-(4-(hydroxycarbamoyl)benzyl)-N-(pyridin-3-yl)morpholine-4-carboxamide]	27 nM	3910 nM
O=C(NO)c1ccc(CN(C(=O)N2CCN(Cc3ccccc3)CC2)c2ncccn2)cc1 [Compound 309, 4-benzyl-N-(4-(hydroxycarbamoyl)benzyl)-N-(pyrimidin-2-yl)piperazine-1-carboxamide]	3 nM	–
O=C(NO)c1ccc(CN(C(=O)N2CCC(O)(c3ccccc3)CC2)c2ncccn2)cc1 [Compound 311, 4-hydroxy-N-(4-(hydroxycarbamoyl)benzyl)-4-phenyl-N-(pyrimidin-2-yl)piperidine-1-carboxamide]	13 nM	22900 nM
O=C(NO)c1ccc(CN(C(=O)N2CCOCC2)c2ncccn2)cc1 [Compound 312, N-(4-(hydroxycarbamoyl)benzyl)-N-(pyrimidin-2-yl)morpholine-4-carboxamide]	7 nM	22700 nM
CC1CN(C(=O)N(Cc2ccc(C(=O)NO)cc2)c2ncccn2)CC(C)O1 (stereo not shown) [Compound 313, N-(4-(hydroxycarbamoyl)benzyl)-2,6-dimethyl-N-(pyrimidin-2-yl)morpholine-4-carboxamide]	7 nM	35900 nM
O=C(NO)c1ccc(CN(C(=O)N2CC=C(c3ccccc3)CC2)c2ccccn2)cc1 [Compound 352, N-(4-(hydroxycarbamoyl)benzyl)-4-phenyl-N-(pyridin-2-yl)-5,6-dihydropyridine-1(2H)-carboxamide]	7 nM	4620 nM
CN1CCN(C(=O)N(Cc2ccc(C(=O)NO)cc2)c2ccccn2)CC1 [Compound 353, N-(4-(hydroxycarbamoyl)benzyl)-4-methyl-N-(pyridin-2-yl)piperazine-1-carboxamide]	10 nM	4530 nM

The next lines start with the values.

IC50 [1]	IC50 [2]	Compound
9 nM	3910 nM	CCN1CCN(C(=O)N(Cc2ccc(C(=O)NO)cc2)c2ccccn2)CC1 [Compound 354, 4-ethyl-N-(4-(hydroxycarbamoyl)benzyl)-N-(pyridin-2-yl)piperazine-1-carboxamide]
5 nM	2340 nM	O=C(NO)c1ccc(CN(C(=O)N2CCN(Cc3ccccc3)CC2)c2ccccn2)cc1 [Compound 355, 4-benzyl-N-(4-(hydroxycarbamoyl)benzyl)-N-(pyridin-2-yl)piperazine-1-carboxamide]
4 nM	3820 nM	COc1ccccc1N1CCN(C(=O)N(Cc2ccc(C(=O)NO)cc2)c2ccccn2)CC1 [Compound 356, N-(4-(hydroxycarbamoyl)benzyl)-4-(2-methoxyphenyl)-N-(pyridin-2-yl)piperazine-1-carboxamide]
3 nM	3280 nM	O=C(NO)c1ccc(CN(C(=O)N2CCN(c3ccc(F)cc3)CC2)c2ccccn2)cc1 [Compound 357, 4-(4-fluorophenyl)-N-(4-(hydroxycarbamoyl)benzyl)-N-(pyridin-2-yl)piperazine-1-carboxamide]
9 nM	4170 nM	O=C(NO)c1ccc(CN(C(=O)N2CCCC2)c2ccccn2)cc1 [Compound 358, N-(4-(hydroxycarbamoyl)benzyl)-N-(pyridin-2-yl)pyrrolidine-1-carboxamide]
1 nM	710 nM	O=C(NO)c1ccc(CN(C(=O)N2CCOCC2)c2nc(-c3ccccc3)cs2)cc1 [Compound 370, N-(4-(hydroxycarbamoyl)benzyl)-N-(4-phenylthiazol-2-yl)morpholine-4-carboxamide]
20 nM	1330 nM	O=C(NO)c1ccc(CN(C(=O)N2CCOCC2)c2nc(-c3ccc(Cl)cc3)cs2)cc1 [Compound 371, N-(4-(4-chlorophenyl)thiazol-2-yl)-N-(4-(hydroxycarbamoyl)benzyl)morpholine-4-carboxamide]
1 nM	212 nM	O=C(NO)c1ccc(CN(C(=O)N2CCOCC2)c2ccc(Br)cc2)cc1 [Compound 372, N-(4-bromophenyl)-N-(4-(hydroxycarbamoyl)benzyl)morpholine-4-carboxamide]
4 nM	–	CN1CCCN(C(=O)N(Cc2ccc(C(=O)NO)cc2)c2ccccn2)CC1 [Compound 376, N-(4-(hydroxycarbamoyl)benzyl)-4-methyl-N-(pyridin-2-yl)-1,4-diazepane-1-carboxamide]
5 nM	–	O=C(NO)c1ccc(CN(C(=O)N2CCC2)c2ccccn2)cc1 [Compound 377, N-(4-(hydroxycarbamoyl)benzyl)-N-(pyridin-2-yl)azetidine-1-carboxamide]
4 nM	–	Cc1ccc(N2CCN(C(=O)N(Cc3ccc(C(=O)NO)cc3)c3ccccn3)CC2)cc1C [Compound 379, 4-(3,4-dimethylphenyl)-N-(4-(hydroxycarbamoyl)benzyl)-N-(pyridin-2-yl)piperazine-1-carboxamide]
5 nM	976 nM	O=C(NO)c1ccc(CN(C(=O)N2CCOCC2)c2ccc(C(F)(F)F)cc2)cc1 [Compound 385, N-(4-(hydroxycarbamoyl)benzyl)-N-(4-(trifluoromethyl)phenyl)morpholine-4-carboxamide]
6 nM	4040 nM	CC1CN(C(=O)N(Cc2ccc(C(=O)NO)cc2)c2cccc(C(F)(F)F)c2)CC(C)O1 (stereo not shown) [Compound 386, N-(4-(hydroxycarbamoyl)benzyl)-2,6-dimethyl-N-(3-(trifluoromethyl)phenyl)morpholine-4-carboxamide]
